Data: publication PMC11706420, “Establishing a physiologically based pharmacokinetic framework for aldehyde oxidase and dual aldehyde oxidase‐CYP substrates” (CPT: Pharmacometrics & Systems Pharmacology, 2024)
Like-named read-outs stand apart in the source and are kept apart here.

Tests used:
[1] = cited from earlier work
[2] = Microsomal binding (fumic); conditions: for Predicted fumic for 1 mg/mL: corrected with Hallifax&Houston algorithm
Method: Microsomal binding (fumic):
(§1) The fraction unbound in human liver microsomes (fumic) of compounds was determined by equilibrium
(§2) dialysis using the high-throughput dialysis method 2 using membranes from HTDialysis, LLC (Gales
(§3) Ferry, CT) having 12 to 14 kDa molecular mass cutoff. Deactivated HLM (by leaving the HLM
(§4) incubation media on the bench overnight at ambient temperature) at 0.25 mg/mL with 2 µM of
(§5) compounds (a final concentration of DMSO as 1%) was added to the donor compartment in 50 mM
(§6) phosphate buffer containing 1 M MgCl2. (150 µL, n=4 per compound). 150 µL of Dulbecco’s PBS
(§7) buffer (pH 7.4) was added to the receiver chamber for each replicate. After reaching equilibrium for 6
(§8) h on a plate shaker (200 rpm) at 37°C in a humidified CO2 incubator (5% CO2), aliquots from both the
(§9) receiver (45 µL) and donor (15 µL) sides of the membrane were matrix matched and analyzed by LC-
(§10) MS/MS. Matrix stability (n=3) and % of recovery (n=4) were assessed.
(§11) Data analysis for binding in microsomal and cytosolic incubations:
(§12) Fraction unbound in microsomal (fumic) and cytosolic (fucyt) incubations were calculated via Eq. S10-11
(§13) based on the ratio of the peak areas of analyte and internal standard.
(§14) 𝑃𝑒𝑎𝑘 𝐴𝑟𝑒𝑎 𝑅𝑎𝑡𝑖𝑜 = (𝑃𝑒𝑎𝑘 𝐴𝑟𝑒𝑎 𝑜𝑓 𝐴𝑛𝑎𝑙𝑦𝑡𝑒)/(𝑃𝑒𝑎𝑘 𝐴𝑟𝑒𝑎 𝑜𝑓 𝐼𝑛𝑡𝑒𝑟𝑛𝑎𝑙 𝑆 tan 𝑑 𝑎𝑟𝑑) (Eq. S10)
(§15) 𝑓𝑢𝑚𝑖𝑐 𝑜𝑟 𝑓𝑢𝑐𝑦𝑡 = (𝑃𝑒𝑎𝑘 𝐴𝑟𝑒𝑎 𝑅𝑎𝑡𝑖𝑜 𝑖𝑛 𝑟𝑒𝑐𝑒𝑖𝑣𝑒𝑟 𝑐𝑜𝑚𝑝𝑎𝑟𝑡𝑚𝑒𝑛𝑡)/
(§16) concentration (0.5 mg/mL) using Hallifax and Houston algorithm (Hallifax and Houston, 2006). Matrix
(§17) stability and recovery were assessed using Eq. S12 and Eq. S13.
(§18) %𝑠𝑡𝑎𝑏𝑖𝑙𝑖𝑡𝑦 = (𝐴𝑣𝑒𝑟𝑎𝑔𝑒 𝑝𝑒𝑎𝑘 𝑎𝑟𝑒𝑎 𝑖𝑛 𝑚𝑎𝑡𝑟𝑖𝑥 𝑎𝑡 𝑡ℎ𝑒 𝑒𝑛𝑑 𝑜𝑓 𝑖𝑛𝑐𝑢𝑏𝑎𝑡𝑖𝑜𝑛)/
(§19) (𝐴𝑣𝑒𝑟𝑎𝑔𝑒 𝑝𝑒𝑎𝑘 𝑎𝑟𝑒𝑎 𝑎𝑡 𝑇 = 0) × 100 (Eq. S12)
%𝑟𝑒𝑐𝑜𝑣𝑒𝑟𝑦 = (𝐴 + 𝐵)/𝐶 × 100 (Eq. S13)
(§20) where A is the average peak area ratio of all matrix samples, B is the average peak area ratio
(§21) of all buffer samples multiplied with the buffer dilution factor and C is the average peak area ratio of

[3] = Cytosolic clearance incubations (substrate depletion); conditions: both, human, liver cytosol
Method: In vitro CLint,u was measured with substrate depletion and binding assays for all compounds (1 μM) in human liver microsomes (HLM; 0.25–0.5 mg/mL) and HLC (1 mg/mL). HLC pool was prepared from livers perfused with Custodiol HTK (histidine tryptophan ketoglutarate) solution, marketed as having preserved “high AO/XO activity.”[15]
Cytosolic clearance incubations (CLint):
Cytosolic incubations were conducted in triplicate, with an additional assay with one replicate for each
Human liver cytosols (HLC) were stored at −80°C and
rapidly thawed just before use at 37°C. HLC (final concentration, 1 mg/mL) was added to Eppendorf
tubes in 96-well plate format and prewarmed at 37°C for 5 min. 45 µL of 50 mM potassium phosphate
concentration of organic solvent in the incubation media was ≤0.1%. Reactions were initiated by the
addition of compound stock solutions (final concentration, 1 µM in 500 µL). At each time point (0, 5,
15, 30, 60 and 120 min), samples from the incubation mixture were added to quench solutions (ACN
or ACN:MeOH containing pruvanserin or midazolam as internal standard, 80:20, v:v). The mixture was
centrifuged at 3500-4000 rpm for 10-30 min (Beckman Coulter Allegra 25R Centrifuge; Brea, CA,
USA). Each well was assayed for parent compound and internal standard, using a suitable LC/MS/MS
method. Positive control carbazeran (1 µM) was run at the same time to ensure system integrity (data

[4] = In vitro permeability (Papp), transwell transport; conditions: dog, MDCK
[5] = observed, cited from earlier work; for CLRenal: ref Table S2/S3 studies
[6] = both, human, 6 h, 2 µM, pH 7.4
Method: Microsomal binding (fumic):
as §1, §2, §3, §4, §5, §6, §7, §8, §9, §10, §11, §12, §13, §14, §15, §16, §17, §18, §19
%𝑟𝑒𝑐𝑜𝑣𝑒𝑟𝑦 = (𝐴 + 𝐵)/𝐶 × 100 (Eq. S13)
as §20, §21

[7] = cited from earlier work; for fmAO: ref suppl. 8-13
[8] = Cytosolic binding (fucyt), human liver cytosol with AO inhibitor; conditions: 1 mg/mL; n=3, mean (CV%)
CYP3A4 = conditions: cited from earlier work
[9] = with 25 μM hydralazine; cited from earlier work
[10] = Plasma protein binding (fup), rapid equilibrium dialysis; type: in vitro ADME, human; conditions: male, human, plasma, 20 h, 1 µM
in vitro = conditions: both, human, microsomes
Method: (§22) Subcellular fractions of human and dog liver were sourced from XenoTech (Kansas City, KS, USA). In vitro CLint,u was measured with substrate depletion and binding assays for all compounds (1 μM) in human liver microsomes (HLM; 0.25–0.5 mg/mL) and HLC (1 mg/mL).
(§23) Microsomal clearance incubations (CLint):
(§24) Human liver microsomes were stored at −80°C and rapidly thawed just before use at 37°C.
(§25) All compounds were mixed with HLM and 50 mM
(§26) phosphate buffer. 450 µL of the mixture was added to 1.2mL cluster tubes in a 96-well block in
(§27) duplicate and warmed in a water bath (Thermo Scientific Precision™,Waltham MA, USA ) at 37°C for
(§28) 5 min. Reactions were initiated by the addition of 50 µL from 10 mM of NADPH stock in 50 mM
(§29) phosphate buffer (final NADPH concentration, 1 mM). The final incubation contained 1 µM test
(§30) compound in 500 µL total volume with 0.02% DMSO. At each time point (5, 10, 20, 30, and 60 min),
(§31) 60 µL of incubation mixture was added to 120 uL of quench solutions (MeOH:ACN, 1:1, v:v)
(§32) containing internal standard (0.5 µM carbutamide). The mixture was centrifuged at 3000 rpm for 20
(§33) min (Eppendorf 5810R, Hamburg, Germany). Supernatant was injected to HPLC-MS/MS with for data
(§34) Data analysis for substrate depletion assays:
(§35) Data from the microsomal and cytosolic incubations were analyzed using GraFit 7 (Erithacus Software,
(§36) Horley, UK) to determine the elimination rate constant (k), which was used in CLint calculation (Eq.
(§37) S9). A nonlinear single exponential fit was used for all compounds.
𝐶𝐿 = 𝑘 × 𝑣𝑜𝑙𝑢𝑚𝑒 𝑜𝑓 𝑖𝑛𝑐𝑢𝑏𝑎𝑡𝑖𝑜𝑛 (Eq S9)

[11] = Cytosolic binding (fucyt), dog liver cytosol; conditions: 1 mg/mL; n=3, mean (CV%)
[12] = Microsomal clearance incubations (substrate depletion); conditions: both, human, liver microsomes
Method: as §22, §23, §24, §25, §26, §27, §28, §29, §30, §31, §32, §33, §34, §35, §36, §37
𝐶𝐿 = 𝑘 × 𝑣𝑜𝑙𝑢𝑚𝑒 𝑜𝑓 𝑖𝑛𝑐𝑢𝑏𝑎𝑡𝑖𝑜𝑛 (Eq S9)

aldehyde oxidase (AO) = assay: Observed clinical pharmacokinetics; conditions: male, human, plasma, intravenous, 80 mg
Method: Human mass balance and clinical pharmacokinetics data after i.v./oral administration (Supplement 3 in Appendix S1; Tables S2 and S3) were utilized to obtain observed fmi and CLint,u, respectively.[23], [24] When observed fmi contained uncertainty (Table S2), minimum and maximum fmi were tested. Virtual subjects (n = 1000) were generated using Simcyp, reflecting the subjects in respective clinical study (Table S3). The mean of the simulated physiological scalars, hepatic blood flow, and predicted/optimized fraction absorbed (fa) and fraction escaping gut metabolism (Fg) were then used in the back‐calculation of in vivo total CLint,u. The well‐stirred liver model was utilized if intravenous (i.v.) data were available or calculated from oral CL, as described previously.[5] CLint,u was then scaled back to cytosolic or microsomal CLint,u using physiological scalars and fmi. Middle‐out models were developed using either observed fmi or CLint,u to refine ESF‐supported bottom‐up models. In the top‐down model, both parameters were fixed to observed values (Figure 1).

[13] = DDI study with rifampicin (capmatinib 400, idelalisib 150, lenvatinib 24 mg) or carbamazepine (ziprasidone 20 mg), observed, ref suppl. 15,18,21,25
[14] = with itraconazole (capmatinib 200 mg) or ketoconazole (idelalisib 400, lenvatinib 5, ziprasidone 40 mg), observed, ref suppl. 15,10,17,20,24
[15] = with rifampicin (capmatinib 400, idelalisib 150, lenvatinib 24 mg) or carbamazepine (ziprasidone 20 mg), observed, ref suppl. 15,18,21,25
[16] = iv: zaleplon 5 (F), ziprasidone 5, zoniporide 80 mg, ref suppl. 22,23,13

In the case of `COc1cc2nccc(Oc3ccc(NC(=O)NC4CC4)c(Cl)c3)c2cc1C(N)=O` [Lenvatinib], the pKa1 ([1]; 47 (per cell)) is given as 12.37[44], the “Predicted fumic for 1 mg/mL” value [2] is given as 0.463 and the microsomal CLint at 1 µM [3] is given as 1 µL/min/mg. The Papp A→B at 120 min, 5 µM [4] was 29.8 ×10⁻⁶ cm/s, the Papp B→A at 120 min, 5 µM [4] was 21.3 ×10⁻⁶ cm/s and the CLRenal [5] was 0.040 L/h. The “fumic (PBPK input)” value [6] was 0.627, the fmCYP3A4 ([7]; observed (mass balance), min-max where uncertain, ref suppl. 8-12) was 28-41 and the “fmCYP3A4 (maximum)” value ([7]; ref suppl. 9-11) was 0.41. The “fmCYP3A4 (minimum)” value ([7]; ref suppl. 9-11) was 0.28, the “fucyt, Human Liver Cytosol with 5 uM Raloxifene” value [8] was 0.678 (3.49) and the “fucyt, Human Liver Cytosol with 50 uM Hydralazine” value [8] was 0.718 (1.95). The “Cmax, control” value (CYP3A4; DDI study with itraconazole (capmatinib 200 mg) or ketoconazole (idelalisib 400, lenvatinib 5, ziprasidone 40 mg), observed geomean (CV%), ref suppl. 15,10,17,20,24) was 43.7 (26) ng/mL, the “AUCinf, control” value (CYP3A4; DDI study with itraconazole (capmatinib 200 mg) or ketoconazole (idelalisib 400, lenvatinib 5, ziprasidone 40 mg), observed, ref suppl. 15,10,17,20,24) was 577 (17) ng.h/mL and the “AUCinf, control (AUC0-12 for ziprasidone)” value (CYP3A4; [13]) was 2370 (24.2) ng.h/mL. For the same compound, the “Cmax, control” value (CYP3A4; [13]) was 274 (36.2) ng/mL, the “AUCinf, interaction” value (CYP3A4; [14]) was 662 (21) ng.h/mL and the “Cmax, interaction” value (CYP3A4; [14]) was 51.2 (38) ng/mL. The “AUCinf, interaction (AUC0-12 for ziprasidone)” value (CYP3A4; [15]) was 1950 (27.1) ng.h/mL, the “Cmax, interaction” value (CYP3A4; [15]) was 275 (28.6) ng/mL and the “HH CLint, non-AO” value [9] was 0.5[21] μL/min/10^6 hepatocytes. For the same compound, the “% Stability in plasma” value [10] was 108%, the microsomal CLint at 1 µM (in vitro) was 7.43 µL/min/mg and the “fucyt, Dog Liver Cytosol with 50 uM Hydralazine” value [11] was 0.721 (7.47).
For `N=C(N)NC(=O)c1cnn(-c2cccc3ncccc23)c1C1CC1` [Zoniporide], the pKa1 ([1]; 47 (per cell)) is listed as 3.4[47], the pKa2 ([1]; 47 (per cell)) is listed as 7.2[47] and the logP ([1]; octanol-water, 12 (per cell)) is listed as 1.15[12]. The “fumic (PBPK input)” value ([2]; at incubation protein concentration (0.25 or 0.5 mg/mL)) was 0.642, the “Predicted fumic for 1 mg/mL” value [2] was 0.476 and the Papp A→B at 120 min, 5 µM [4] was 1.72 ×10⁻⁶ cm/s. For the same compound, the Papp B→A at 120 min, 5 µM [4] was 1.22 ×10⁻⁶ cm/s, the AUCinf [5, 16] was 839 (4.08) ng.h/mL and the CLiv [5, 16] was 95.4 (5.71) L/h. The Cmax [5, 16] was 590 (7.49) ng/mL, the CLRenal [5] was 16.2 L/h and the fmAO ([7]; measured in excreta) was 0.52-0.69. The fmAO ([7]; observed (mass balance), min-max where uncertain, Table S10) was 52-69, the fmother ([7]; observed (mass balance), min-max, ref suppl. 13) was 13-30 and the ferenal ([7]; ref suppl. 9-11, 13) was 0.17. For the same compound, the “fmother (maximum)” value ([7]; ref suppl. 9-11, 13) was 0.30, the “fmother (minimum)” value ([7]; ref suppl. 9-11, 13) was 0.13 and the “fmAO (maximum)” value ([7]; ref suppl. 11, 13) was 0.69. The “fmAO (minimum)” value ([7]; ref suppl. 11, 13) was 0.52, the “fe (biliary)” value ([7]; ref suppl. 13) was 0.01 and the microsomal CLint at 1 µM [12] was 5.19 µL/min/mg. The “fucyt, Human Liver Cytosol with 5 uM Raloxifene” value [8] was 0.954 (5.40), the “fucyt, Human Liver Cytosol with 50 uM Hydralazine” value [8] was 1 (0.40) and the “HH CLint, non-AO” value [9] was 1.6[21] μL/min/10^6 hepatocytes. The CLint scaled (aldehyde oxidase (AO)) was greater than 1000 mL/min/kg, the “% Stability in plasma” value [10] was 105% and the “fucyt, Dog Liver Cytosol with 50 uM Hydralazine” value [11] was 0.847 (1.57).
